Among the data in patent publication US7186831B2, “5-halo-2-alkyl[1,2,4]triazolo[1,5-a]pyrimidin-7-amines” (priority 2001, dated 2007) are logP values, retold here.

The term logP denotes a log measure of how a compound divides between an organic and an aqueous phase.

A short description of the first series: log P by HPLC. The class given is physicochemical. Conditions: EEC directive 79/831 Annex V. A8 by HPLC (gradient method, acetonitrile/0.1% aqueous phosphoric acid).
Take `Cc1nc2nc(Cl)c(-c3ccc(F)cc3F)c(NC3CCC(C(F)(F)F)CC3)n2n1` (stereo not shown) [compound 409]: the logP stood at 3.56. Still for that read-out and setting: in the case of `Cc1nc2nc(Cl)c(-c3c(F)cccc3F)c(NOCc3ccc(C(F)(F)F)cc3)n2n1` [compound 430] it was 3.44.

`C#CCN(C)c1c(-c2ccc(F)cc2F)c(Cl)nc2nc(C)nn12` [compound 351]: the lipophilicity (logP) is listed as 2.67. The same measure, in the same setting: to `C=C(C)CN(C)c1c(-c2ccccc2Cl)c(Cl)nc2nc(C3CC3)nn12` [compound 496] belongs 4.32.

Compound `Cc1nc2nc(Cl)c(-c3c(F)cccc3F)c(N3CCC(O)C3)n2n1` (stereo not shown) [compound 303] displayed a logP of 1.73. Still for that read-out and setting: in the case of `C=C(C)CN(CC)c1c(-c2ccccc2Cl)c(Cl)nc2nc(C3CC3)nn12` [compound 447] it was 4.59. `C[C@H](Nc1c(-c2ccc(F)cc2F)c(Cl)nc2nc(C3CC3)nn12)C(F)(F)F` (single isomer, unassigned) [compound 490] returned a logP of 3.52.

On to `Cc1nc2nc(Cl)c(-c3ccccc3F)c(N3CCOCC3)n2n1` [compound 388], for which the log partition coefficient (logP) came to 2.16. Regarding `Cc1nc2nc(Cl)c(-c3c(F)cccc3F)c(N3CCC(F)CC3)n2n1` [compound 443], the lipophilicity (logP) came to 2.85. Take `Cc1nc2nc(Cl)c(-c3c(F)cccc3Cl)c(N3CCSCC3)n2n1` [compound 259]: the logP is given as 3.18. Compound `COCCN(C)c1c(-c2c(F)cc(F)cc2F)c(Cl)nc2nc(C3CC3)nn12` [compound 468] gave a log partition coefficient (logP) of 3.29. The same measure, in the same setting: in the case of `Cc1nc2nc(Cl)c(-c3ccc(F)cc3F)c(N3CCC(C(F)(F)F)CC3)n2n1` [compound 293] it was 3.49; in that of `Cc1nc2nc(Cl)c(-c3c(F)cccc3F)c(N3CCCC(O)C3)n2n1` (stereo not shown) [compound 314], 2.03. `Cc1nc2nc(Cl)c(-c3ccccc3F)c(NOCc3cccc(C(F)(F)F)c3)n2n1` [compound 371]: the logP is recorded as 3.38. Still for that read-out and setting: to `Cc1nc2nc(Cl)c(-c3c(F)cccc3F)c(NC(C)(C)C(F)(F)F)n2n1` [compound 421] belongs 3.34; to `CCC(C)Nc1c(-c2c(F)cc(F)cc2F)c(Cl)nc2nc(C3CC3)nn12` (stereo not shown) [compound 462], 3.69. Still for that read-out and setting: in the case of `Cc1nc2nc(Cl)c(-c3ccc(F)cc3F)c(NCC(F)(F)F)n2n1` [compound 406] it was 2.68; in that of `Cc1nc2nc(Cl)c(-c3c(F)cc(F)cc3F)c(NC(C)C3CC3)n2n1` (stereo not shown) [compound 379], 3.09. Same read-out and setting: to `Cc1nc2nc(Cl)c(-c3ccccc3Cl)c(NC(C)C(F)(F)F)n2n1` (stereo not shown) [compound 437] belongs 3.1. Consider `Cc1nc2nc(Cl)c(-c3c(F)cccc3F)c(N3CC(C)CC(C)C3)n2n1` (stereo not shown) [compound 310], for which the log partition coefficient (logP) is 4.08. Compound `CCN(Cc1ccco1)c1c(-c2ccccc2Cl)c(Cl)nc2nc(C)nn12` [compound 404] displayed a logP of 3.56.

The compound `Cc1nc2nc(Cl)c(-c3c(F)cccc3F)c(NOCc3cc(Cl)cc(Cl)c3)n2n1` [compound 428] yielded a logP of 3.75.

Compound `Cc1nc2nc(Cl)c(-c3c(F)cccc3Cl)c(N(C)Cc3ccco3)n2n1` [compound 274] gave a log partition coefficient (logP) of 3.26. The same measure, in the same setting: to `C#CCN(C)c1c(-c2c(F)cccc2F)c(Cl)nc2nc(C)nn12` [compound 331] belongs 2.54.

Staying with this series, now noted: HPLC, gradient method, acetonitrile/0.1% aqueous phosphoric acid; EEC directive 79/831 Annex V. A8.
`Clc1ccccc1-c1c(Cl)nc2nc(C3CC3)nn2c1NCC1CC1(Cl)Cl` (stereo not shown) [compound 745] had a logP of 3.78. The same measure, in the same setting: to `Fc1ccc(-c2c(Cl)nc3nc(C4CC4)nn3c2NC2CCCC(C(F)(F)F)C2)c(F)c1` (stereo not shown) [compound 658] belongs 3.98; to `Cc1nc2nc(Cl)c(-c3c(F)cc(F)cc3F)c(NCC3CC3)n2n1` [compound 68], 2.86. The compound `CC(C)CNc1c(-c2ccc(Cl)cc2Cl)c(Cl)nc2nc(C3CC3)nn12` [compound 790] gave a logP of 4.3. Still for that read-out and setting: to `CC1CC(C)CN(c2c(-c3ccc(F)cc3F)c(Cl)nc3nc(C(F)(F)F)nn23)C1` (stereo not shown) [compound 797] belongs 5.18; to `CC(Nc1c(-c2ccc(F)cc2Cl)c(Cl)nc2nc(C3CC3)nn12)C(F)(F)F` (racemic) [compound 747], 3.73; to `CCCNc1c(-c2c(F)cc(F)cc2F)c(Cl)nc2nc(C)nn12` [compound 61], 2.75.

The compound `Fc1ccc(-c2c(Cl)nc3nc(C4CC4)nn3c2NC2CC(C(F)(F)F)CC(C(F)(F)F)C2)c(F)c1` (stereo not shown) [compound 716] showed a logP of 4.31.

For the compound `Fc1cc(F)c(-c2c(Cl)nc3nc(C(F)(F)F)nn3c2N2CCOCC2)c(F)c1` [compound 34], the logP amounted to 3.22. The same measure, in the same setting: to `CCc1nc2nc(Cl)c(-c3c(F)cc(F)cc3F)c(NCC(F)(F)F)n2n1` [compound 5] belongs 3.06; to `CC1CCN(c2c(-c3ccc(F)cc3F)c(Cl)nc3nc(C4CC4)nn23)CC1` [compound 613], 4.41; to `Fc1cc(F)c(-c2c(Cl)nc3nc(C(F)(F)F)nn3c2N2CCCC2)c(F)c1` [compound 103], 3.92. As for `C=C(C)CN(CC)c1c(-c2ccccc2Cl)c(Cl)nc2nc(C)nn12` [compound 133], the logP stood at 3.9. This logP and that of the compound before are within 0.2 log units of each other. Still for that read-out and setting: to `COCCNc1c(-c2c(F)cccc2Cl)c(Cl)nc2nc(C)nn12` [compound 257] belongs 2.42; to `Cc1nc2nc(Cl)c(-c3ccccc3Cl)c(N3CCC(C(F)(F)F)CC3)n2n1` [compound 232], 3.63. Same read-out and setting: in the case of `C=C(C)CN(CC)c1c(-c2ccc(Cl)cc2Cl)c(Cl)nc2nc(C3CC3)nn12` [compound 769] it was 5.25.

Regarding `Fc1ccc(-c2c(Cl)nc3nc(C4CC4)nn3c2N2CCC3(CC2)OCCO3)c(F)c1` [compound 609], the logP turned out to be 3.22.

`CC(C)C(C)Nc1c(-c2ccc(Cl)cc2Cl)c(Cl)nc2nc(C3CC3)nn12` (single isomer, unassigned) [compound 759] yielded a lipophilicity (logP) of 4.72. Same read-out and setting: to `Fc1ccc(-c2c(Cl)nc3nc(C4CC4)nn3c2NC2CCCCC2)c(F)c1` [compound 652] belongs 4.02; to `CCC(C)Nc1c(-c2ccc(F)cc2F)c(Cl)nc2nc(C3CC3)nn12` (stereo not shown) [compound 647], 3.57. On the same count and under the same terms, to `CC1C=CC(C)N1c1c(-c2c(F)cccc2Cl)c(Cl)nc2nc(C3CC3)nn12` (stereo not shown) [compound 584] belongs 4.15; to `Fc1ccc(-c2c(Cl)nc3nc(C4CC4)nn3c2NC2CCCC2)c(F)c1` [compound 650], 3.76. Regarding `CCNc1c(-c2ccc(F)cc2F)c(Cl)nc2nc(C3CC3)nn12` [compound 712], the logP is recorded as 2.97.

With `Cc1nc2nc(Cl)c(-c3c(F)cccc3F)c(N(C)CC#N)n2n1` [compound 564], the lipophilicity (logP) turned out to be 2.18. For `Cc1nc2nc(Cl)c(-c3ccc(F)cc3F)c(NC(C)C3CCCCC3)n2n1` (stereo not shown) [compound 198], the logP was 4.24. Same read-out and setting: to `COCCNc1c(-c2c(F)cc(F)cc2F)c(Cl)nc2nc(C(F)(F)F)nn12` [compound 107] belongs 3.38. Still for that read-out and setting: in the case of `Cc1nc2nc(Cl)c(-c3c(F)cccc3Cl)c(NC3CC3)n2n1` [compound 258] it was 2.77; in that of `Cc1nc2nc(Cl)c(-c3c(F)cc(F)cc3F)c(N3OCCC3C)n2n1` (stereo not shown) [compound 585], 2.93. Same read-out and setting: in the case of `C=CCN(CC)c1c(-c2ccc(F)cc2F)c(Cl)nc2nc(C(F)(F)F)nn12` [compound 548] it was 4.4; in that of `Cc1nc2nc(Cl)c(-c3ccc(F)c(Cl)c3)c(N(N)CC(C)C)n2n1` [compound 131], 3.31. As to `CC(C)C(C)Nc1c(-c2ccccc2Cl)c(Cl)nc2nc(C3CC3)nn12` (stereo not shown) [compound 579], the logP is recorded as 4.14. Still for that read-out and setting: to `CCCCN(CC)c1c(-c2c(F)cc(F)cc2F)c(Cl)nc2nc(C)nn12` [compound 161] belongs 4.08; to `Cc1nc2nc(Cl)c(-c3c(F)cc(F)cc3F)c(NC(C)C(C)C)n2n1` (stereo not shown) [compound 134], 3.37; to `C=CCN(CC)c1c(-c2ccc(F)cc2F)c(Cl)nc2nc(C)nn12` [compound 207], 3.35. `CC(C)CNc1c(-c2ccc(F)cc2Cl)c(Cl)nc2nc(C3CC3)nn12` [compound 621] had a logP of 3.9. Still for that read-out and setting: to `C=C(C)CN(C)c1c(-c2ccc(F)cc2F)c(Cl)nc2nc(C3CC3)nn12` [compound 670] belongs 4.05; to `CC(C)C(C)Nc1c(-c2c(F)cccc2F)c(Cl)nc2nc(C3CC3)nn12` (stereo not shown) [compound 751], 3.82; to `CN(C)CCCN(C)c1c(-c2ccc(F)cc2F)c(Cl)nc2nc(C3CC3)nn12` [compound 665], 1.61. The compound `Cc1nc2nc(Cl)c(-c3c(F)cccc3F)c(N3CCCC3)n2n1` [compound 170] returned a logP of 2.61. On the same count and under the same terms, in the case of `COCC(C)Nc1c(-c2c(F)cc(F)cc2F)c(Cl)nc2nc(C)nn12` (stereo not shown) [compound 116] it was 2.64.

For the compound `Fc1ccc(-c2c(Cl)nc3nc(C(F)(F)F)nn3c2NC2CCCC2)c(F)c1` [compound 530], the logP is recorded as 4.21. Same read-out and setting: to `CCC(C)Nc1c(-c2c(F)cccc2F)c(Cl)nc2nc(C3CC3)nn12` (stereo not shown) [compound 761] belongs 3.44; to `Fc1ccc(-c2c(Cl)nc3nc(C4CC4)nn3c2NC2CC2)c(F)c1` [compound 655], 2.95. On the same count and under the same terms, in the case of `CC1C=CC(C)N1c1c(-c2c(F)cc(F)cc2F)c(Cl)nc2nc(C3CC3)nn12` (stereo not shown) [compound 582] it was 4.17.

`CCOC(=O)CN(CC)c1c(-c2c(F)cc(F)cc2F)c(Cl)nc2nc(C)nn12` [compound 160] came in with a logP of 3.14. On the same count and under the same terms, in the case of `CCN(CCN(C)C)c1c(-c2c(F)cccc2F)c(Cl)nc2nc(C)nn12` [compound 567] it was 1.46; in that of `C=C(C)CN(CC)c1c(-c2c(F)cc(F)cc2F)c(Cl)nc2nc(C(F)(F)F)nn12` [compound 95], 4.69; in that of `Cc1nc2nc(Cl)c(-c3c(F)cc(F)cc3F)c(N3CCC(F)CC3)n2n1` [compound 167], 3.03.

`COC(=O)CN(C)c1c(-c2ccc(F)cc2F)c(Cl)nc2nc(C3CC3)nn12` [compound 720]: the logP came to 2.95.
